Data on eleven compounds can be found in patent publication US6291470A, “Indole derivatives process for producing the same and medicinal uses of the same” (Toray Industries, Inc., priority 1992, dated 2001).

One test has as its target T1, δ-opioid receptor (Mus musculus, UniProt P32300).
T1 construct: from tissue; host or cells: vas deferens of male ddy mice
The test is described as follows: δ-opioid antagonist activity against DPDPE in mouse vas deferens (MVD). Particulars: 20 min; for Ratio of IC50 Values: DPDPE IC50 with/without 100 nM test compound; for Kb: against DPDPE, test compound 100 nM, read-out: Ke. The method, then: Using mouse vas deferens (MVD), the antagonist activity against DPDPE which is a δ-opioid agonist was checked.
In this experiment, ddy male mice were used. In a Magnus' tube which is filled with Krebes-Henseleit solution (NaCl […]; KCl 4.7 mM; CaCl2 2.5 mM; KH2 PO4 1.1 mM; NaHCO3 25 mM; glucose 11 mM) kept at 37° C., and into which an atmosphere consisting of 5% carbon dioxide and 95% oxygen was flown, vas deferens taken from the animals was suspended. Electric stimulation was applied through ring-shaped platinum electrodes mounted on the upper and lower portions of the tube at a frequency of 0.1 Hz and 5.0 mS duration. The contraction of the tissue was recorded on polygraph using isometric transducer.
Then 100 nM of the test compound was added. Twenty minutes later, DPDPE was begun to be added cumulatively. The ratio of IC50 values in the presence and absence of the test compound, Ke value (the molar concentration of the test compound necessary for translating the dose-effect curve to the curve of twice dose) and pA2 value were determined. The pA2 value was determined by the method of Shild et al (Shild, H. O., Br. J. Pharmac. Chamotehr., 4, 277 (1949)). That is, the logarithm of the test compound (log[test compound]) was plotted along the abscissa and the logarithm of the value obtained by subtracting 1 from the ratio of IC50 values was plotted in the presence and absence of the test compound [log(dose ratio-1)] along the ordinate. The pA2 value was determined from the value on the abscissa when the value on the ordinate of the obtained line is 0.

The subject of test [1] is delayed type hypersensitivity. The test is described as follows: Mouse Delayed Type Hypersensitivity Reaction Suppression Test-2 (donor spleen cells, subcutaneous administration). The test is classed as in vivo. The note with it: C57BL/6 spleen cells; subcutaneous everyday from day of sensitization, totally 8 days; BALB/c. The source says:
BALB/c mice (male, 7 weeks old) were used, and each group consisted of 4-5 mice. Spleen cells (1×10^7 ) obtained from a donor mouse (C57BL/6) was subcutaneously administered to sensitize the mice. On Day 7 from the sensitization, the spleen cells (5×10^6) of the donor were subcutaneously administered on the right hing leg and spleen cells (5×10^6) obtained from a mouse of the same line as the recipient mice were subcutaneously administered on the left footpad. Twenty four hours later, the thicknesses of the right and left footpads were measured with a dial thickness gage, and the difference in thicknesses of the right and left footpads before the induction of the reaction and 24 hours after the induction of the reaction was employed as the index of the degree of the reaction.
The test compound was dissolved in 10% DMSO-water and was subcutaneously administered everyday from the day of sensitization to the day of induction of the reaction, totally 8 days. In the control group, 10% DMSO-water alone was administered in the same manner. The volume of administration was 10 ml/kg in both study groups and in the control group. Delayed Type Hypersensitivity Reaction=(thickness of right foodpad after induction-thickness of right footpad before induction)-(thickness of […] before induction) [formula]
wherein C means delayed type hypersensitivity reaction of the group to which the test compound was administered and D means the delayed type hypersensitivity reaction of the group to which vehicle was administered.

Test [2] relates to delayed type hypersensitivity. The test is described as follows: Mouse Delayed Type Hypersensitivity Reaction Suppression Test-1 (SRBC). Format: in vivo. Particulars: SRBC sensitization; subcutaneous, everyday from 3 days before sensitization, totally 8 days; BALB/c. The method, then:
BALB/c mice (male, 7 weeks old) were used. The mice were classified into groups depending on the body weight, each group consisting of 7-8 mice. Each of the mice was sensitized by subcutaneously administering […] of SRBC (8×10^8 in saline) on the heel of the left hing leg. On day 4 from the sensitization, 25 μl of SRBC (8×10^9 in saline) was subcutaneously administered on the right footpad so as to induce delayed type hypersensitivity. The difference in the thicknesses of the right footpad before the induction of reaction and 24 hours after the induction of the reaction was employed as an index of the degree of the reaction.
The test compound was dissolved in 10% DMSO-water and was subcutaneously administered everyday from 3 days before the sensitization to the day of induction of the reaction, totally 8 days. In the control group, 10% DMSO-water alone was administered in the same manner. The volume of administration was 5 ml/kg in both study groups and in the control group.
The % suppression of the delayed type hypersensitivity reaction was calculated according to the following equation: [formula]
wherein A means the difference in the thickness of the right hind leg before and after the reaction in control group, and B means the difference in the thickness of the right hind leg before and after the reaction in the group to which the test compound was administered.

For another test, the target named is T2, κ-opioid receptor (Cavia porcellus, UniProt P41144).
T2 construct: from tissue; host or cells: ileum longitudinal muscle of male Hartley guinea pigs
T2 sequence (P41144 whole entry): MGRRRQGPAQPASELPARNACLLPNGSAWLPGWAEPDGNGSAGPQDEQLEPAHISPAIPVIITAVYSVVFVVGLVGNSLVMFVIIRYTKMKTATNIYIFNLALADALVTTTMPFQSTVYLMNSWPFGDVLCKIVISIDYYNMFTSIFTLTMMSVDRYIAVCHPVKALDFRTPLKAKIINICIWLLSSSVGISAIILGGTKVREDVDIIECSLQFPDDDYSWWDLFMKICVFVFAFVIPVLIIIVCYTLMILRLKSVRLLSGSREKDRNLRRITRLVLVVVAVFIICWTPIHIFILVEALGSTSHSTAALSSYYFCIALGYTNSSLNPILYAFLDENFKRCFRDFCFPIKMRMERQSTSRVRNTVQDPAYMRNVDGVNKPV
The test is described as follows: κ-opioid antagonist activity against U-50488H in guinea pig ileum (GPI). The note with it: 20 min; for Ratio of IC50 Values: U-50488H IC50 with/without 100 nM test compound; for Kb: against U-50488H, test compound 100 nM, read-out: Ke. Here is the method: Using guinea pig ileum (GPI), antagonist activities against U-50488H which is a κ-opioid agonist was determined.
Hartley male guinea pigs were used. After killing the guinea pigs by clubbing, ilea were taken. The inside of the ilea was washed with a nutrient liquid and only longitudinal muscles were peeled off. Using the thus obtained longitudinal muscles, the tests were carried out using the same apparatus as used in the experiment employing MVD.
First, U-50488H which is a κ-agonist was cumulatively added and IC50 value was determined. Thereafter, the muscle was well washed with the nutrient liquid. After the contraction reaction became stable, 100 nM of a test compound was added. From 20 minutes after, U-50488H was cumulatively added and the ratio of IC50 values, Ke value and pA2 value were determined in the same manner as in the experiment employing MVD.

Test [3] has as its system Cerebral cortex nerve cells. The test is described as follows: Brain cell-protecting action, MTT method. The note with it: 10 μM; for brain cell-protecting action (in words): MTT; for Ratio of Absorbances: study group / control group, 570 nm, 3 days culture. The test is classed as cell-based, rat. Here is the method: The brain cell-protecting action was examined by MTT [3-(4,5-dimethylthiazol-2-yl)-2,5-diphenyltetrazolium bromide] method. MTT yields a dark blue formazan compound by mitochondria in living cells. This compound was dissolved in isopropanol and absorbance at 570 nm was measured, thereby measuring the number of living cells.
Cerebral cortex nerve cells of fetal rats of 17 days old were placed in wells of a 96-well plate at a population density of 1×10^5 cells/cm^2. Then 10 μM of a test compound was added and the cells were cultured in 200 μl of mixed medium of D-MEM/F.12 (1:1) for 3 days (37° C., 5%CO2). In a control group, the medium alone was added Then […] of MTT solution in PBS (6mg/ml) was added and the mixture was allowed to react for 3 hours (37° C., 5% CO2). After removing the culture medium, 100 μl of isopropanol was added and the absorbance was measured.
The ratio of the absorbances of the study group and the control group was employed as an index of brain cell-protecting action.

T1 sequence (P32300 whole entry): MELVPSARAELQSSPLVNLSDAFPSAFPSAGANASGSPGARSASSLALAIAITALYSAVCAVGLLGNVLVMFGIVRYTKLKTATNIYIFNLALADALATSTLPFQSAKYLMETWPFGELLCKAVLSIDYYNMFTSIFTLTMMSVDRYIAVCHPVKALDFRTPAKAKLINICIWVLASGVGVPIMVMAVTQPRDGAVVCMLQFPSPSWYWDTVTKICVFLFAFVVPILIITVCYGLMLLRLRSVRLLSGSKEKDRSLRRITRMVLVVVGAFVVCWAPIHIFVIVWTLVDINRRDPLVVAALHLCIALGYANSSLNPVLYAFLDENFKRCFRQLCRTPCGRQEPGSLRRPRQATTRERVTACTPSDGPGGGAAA

As to `Oc1ccc2c3c1O[C@H]1c4[nH]c5c(-c6ccccc6)cccc5c4C[C@@]4(O)[C@@H](C2)N(CC2CC2)CC[C@]314` [Compound 120, 17-cyclopropylmethyl-6,7-didehydro-4,5α-epoxy-3,14β-dihydroxy-7'-phenyl-6,7-2',3'-indolomorphinan], on δ-opioid receptor, the “Ratio of IC50 Values” was 17.0 and the Kb was 6.25 nM. For the same compound, in test [1], the “% Suppression” value was found to be 46%.
On to `C[S+]([O-])c1cccc2c3c([nH]c12)[C@@H]1Oc2c(O)ccc4c2[C@@]12CCN(CC1CC1)[C@H](C4)[C@]2(O)C3` (single isomer, unassigned) [Compound 592, 17-cyclopropylmethyl-6,7-didehydro-4,5α-epoxy-3,14β-dihydroxy-7'-methylsulfinyl-6,7-2',3'-indolomorphinan], for which the “% Suppression” value in test [1] was found to be 20%.
In the case of `N#Cc1ccc2c3c([nH]c2c1)[C@@H]1Oc2c(O)ccc4c2[C@@]12CCN(CC1CC1)[C@H](C4)[C@]2(O)C3` [Compound 53, 17-cyclopropylmethyl-6,7-didehydro-4,5α-epoxy-3,14β-dihydroxy-6'-cyano-6,7-2',3'-indolomorphinan], at δ-opioid receptor, the “Ratio of IC50 Values” came out at 62.3 and the Kb was found to be 1.63 nM. Also, the “% Suppression” value in test [2] is recorded as 18%.
As to `O=C(NCC1CC1)c1ccc2[nH]c3c(c2c1)C[C@@]1(O)[C@H]2Cc4ccc(O)c5c4[C@@]1(CCN2CC1CC1)[C@H]3O5` [Compound 7, 17-cyclopropylmethyl-6,7-didehydro-4,5α-epoxy-3,14β-dihydroxy-5'-(N-cyclopropylmethylcarbamoyl)-6,7-2',3'-indolomorphinan], at δ-opioid receptor, the “Ratio of IC50 Values” is given as 33.2 and the Kb is 3.11 nM. In addition, on κ-opioid receptor, the “Ratio of IC50 Values” turned out to be 22.8 and the Kb was 4.59 nM. In addition, in test [3], the “brain cell-protecting action (in words)” value is recorded as “Clear activities” and the “Ratio of Absorbances” value stood at 5.31.
As to `C[S+]([O-])c1cccc2c3c([nH]c12)[C@@H]1Oc2c(O)ccc4c2[C@@]12CCN(CC1CC1)[C@H](C4)[C@]2(O)C3` (single isomer, unassigned) [Compound 591, 17-cyclopropylmethyl-6,7-didehydro-4,5α-epoxy-3,14β-dihydroxy-7'-methylsulfinyl-6,7-2',3'-indolomorphinan], the “% Suppression” value in test [1] worked out at 16%.
As to `CN(C)Cc1ccc2[nH]c3c(c2c1)C[C@@]1(O)[C@H]2Cc4ccc(O)c5c4[C@@]1(CCN2CC1CC1)[C@H]3O5` [Compound 10, 17-cyclopropylmethyl-6,7-didehydro-4,5α-epoxy-3,14β-dihydroxy-5'-(N,N-dimethylamino)methyl-6,7-2',3'-indolomorphinan], at δ-opioid receptor, the “Ratio of IC50 Values” was 11.4 and the Kb worked out at 9.62 nM. Besides, on κ-opioid receptor, the “Ratio of IC50 Values” came to 19.4 and the Kb stood at 9.67 nM. In test [3], the “brain cell-protecting action (in words)” value is recorded as “Clear activities” and the “Ratio of Absorbances” value came to 7.58.
With `O=C(NCC1CC1)c1ccc2c3c([nH]c2c1)[C@@H]1Oc2c(O)ccc4c2[C@@]12CCN(CC1CC1)[C@H](C4)[C@]2(O)C3` [Compound 47, 17-cyclopropylmethyl-6,7-didehydro-4,5α-epoxy-3,14β-dihydroxy-6'-(N-cyclopropylmethylcarbamoyl)-6,7-2',3'-indolomorphinan], the results for the “Ratio of IC50 Values” on δ-opioid receptor and on κ-opioid receptor were 13.0 and 3.11, respectively. Further, the Kb came to 8.33 nM on δ-opioid receptor and 47.4 nM at κ-opioid receptor.
For `O=[N+]([O-])c1cccc2[nH]c3c(c12)C[C@@]1(O)[C@H]2Cc4ccc(O)c5c4[C@@]1(CCN2CC1CC1)[C@H]3O5` [Compound 78, 17-cyclopropylmethyl-6,7-didehydro-4,5α-epoxy-3,14β-dihydroxy-4'-nitro-6,7-2',3'-indolomorphinan], at δ-opioid receptor, the “Ratio of IC50 Values” is on record as 148 and the Kb came to 7.25 nM. The “% Suppression” value in test [2] stood at 36%.
As to `CN(C)CCc1ccc2[nH]c3c(c2c1)C[C@@]1(O)[C@H]2Cc4ccc(O)c5c4[C@@]1(CCN2CC1CC1)[C@H]3O5` [Compound 9, 17-cyclopropylmethyl-6,7-didehydro-4,5α-epoxy-3,14-dihydroxy-5'-[2-(N,N-dimethylamino)ethyl]-6,7-2',3'-indolomorphinan], at δ-opioid receptor, the “Ratio of IC50 Values” worked out at 25.6 and the Kb amounted to 4.07 nM. In addition, on κ-opioid receptor, the “Ratio of IC50 Values” is 99.0 and the Kb came to 4.07 nM. Besides, in test [3], the “brain cell-protecting action (in words)” value is on record as “Clear activities” and the “Ratio of Absorbances” value amounted to 8.27. Besides, the “brain cell-protecting activity relative to nor-BNI (in words)” value in test [3] (vs nor-BNI) is given as “higher than that of nor-BNI”.
For `CCCOC(=O)c1ccc2c3c([nH]c2c1)[C@@H]1Oc2c(O)ccc4c2[C@@]12CCN(CC1CC1)[C@H](C4)[C@]2(O)C3` [Compound 393, 17-cyclopropylmethyl-6,7-didehydro-4,5α-epoxy-3,14β-dihydroxy-6'-propoxycarbonyl-6,7-2',3'-indolomorphinan], at δ-opioid receptor, the “Ratio of IC50 Values” is listed as 12.3 and the Kb amounted to 8.85 nM. Besides, the “% Suppression” value in test [1] worked out at 33%.
Consider `O=S(=O)(NCC1CC1)c1ccc2c3c([nH]c2c1)[C@@H]1Oc2c(O)ccc4c2[C@@]12CCN(CC1CC1)[C@H](C4)[C@]2(O)C3` [Compound 45, 17-cyclopropylmethyl-6,7-didehydro-4,5α-epoxy-3,14β-dihydroxy-6'-(N-cyclopropylmethylsulfamoyl)-6,7-2',3'-indolomorphinan], for which the “Ratio of IC50 Values” at δ-opioid receptor is 7.44; on κ-opioid receptor, 3.22. Also, the Kb on δ-opioid receptor is 15.5 nM; on κ-opioid receptor, 45.1 nM.
